Measurements reported in US9920339B2, “Methods, reagents and cells for biosynthesizing compounds” (INVISTA North America S.á r.l., priority 2014, dated 2018).

Key:
[1] = system: Chromobacterium violaceum ω-transaminase (SEQ ID NO: 8); assay: ω-transaminase enzyme activity assay, amine substrate plus pyruvate to L-alanine (cell free extract); type: biochemical; conditions: reverse direction, 10 mM substrate, 10 mM pyruvate, 100 μM pyridoxyl 5′ phosphate, pH 7.5, 25° C., 4 h, L-alanine by RP-HPLC
Experimental: A nucleotide sequence encoding an N-terminal His-tag was added to the genes from Chromobacterium violaceum and Rhodobacter sphaeroides encoding the ω-transaminases of SEQ ID NOs: 8 and 10 respectively (see FIG. 10) such that N-terminal HIS tagged ω-transaminases could be produced. Each of the resulting modified genes was cloned into a pET21a expression vector under control of the T7 promoter and each expression vector was transformed into a BL21[DE3] E. coli host. The resulting recombinant E. coli strains were cultivated at 37° C. in a 250 mL shake flask culture containing 50 mL LB media and antibiotic selection pressure, with shaking at 230 rpm. Each culture was induced overnight at 16° C. using 1 mM IPTG.
(§1) The pellet from each induced shake flask culture was harvested via centrifugation. Each pellet was resuspended and lysed via sonication. The cell debris was separated from the supernatant via centrifugation and the cell free extract was used immediately in enzyme activity assays.
Enzyme activity assays in the reverse direction (i.e., 5-aminopentanoate to glutarate semialdehyde) were performed in a buffer composed of a final concentration of 50 mM HEPES buffer (pH=7.5), 10 mM 5-aminopentanoate, 10 mM pyruvate and 100 μM pyridoxyl 5′ phosphate. Each enzyme activity assay reaction was initiated by adding cell free extract of the ω-transaminase gene product or the empty vector control to the assay buffer containing the 5-aminopentanoate and incubated at 25° C. for 4 h, with shaking at 250 rpm. The formation of L-alanine from pyruvate was quantified via RP-HPLC.
(§2) A nucleotide sequence encoding an N-terminal His-tag was added to the Chromobacterium violaceum, Pseudomonas aeruginosa, Pseudomonas syringae, Rhodobacter sphaeroide, Escherichia coli and Vibrio fluvialis genes encoding the ω-transaminases of SEQ ID NOs: 8-13, respectively (see FIG. 10) such that N-terminal HIS tagged ω-transaminases could be produced. The modified genes were cloned into a pET21a expression vector under the T7 promoter. Each expression vector was transformed into a BL21[DE3] E. coli host. Each resulting recombinant E. coli strain were cultivated at 37° C. in a 250 mL shake flask culture containing 50 mL LB media and antibiotic selection pressure, with shaking at 230 rpm. Each culture was induced overnight at 16° C. using 1 mM IPTG.
(§3) Enzyme activity assays in the reverse direction (i.e., 5-aminopentanol to 5-oxopentanol) were performed in a buffer composed of a final concentration of 50 mM HEPES buffer (pH=7.5), 10 mM 5-aminopentanol, 10 mM pyruvate, and 100 μM pyridoxyl 5′ phosphate. Each enzyme activity assay reaction was initiated by adding cell free extract of the ω-transaminase gene product or the empty vector control to the assay buffer containing the 5-aminopentanol and then incubated at 25° C. for 4 h, with shaking at 250 rpm. The formation of L-alanine was quantified via RP-HPLC.
as §2, with “and” for “Rhodobacter sphaeroide,”, “coli” for “coli and Vibrio fluvialis”, “8-10 and 12,” for “8-13,”
Enzyme activity assays in the reverse direction (i.e., cadaverine to 5-aminopentanal) were performed in a buffer composed of a final concentration of 50 mM HEPES buffer (pH=7.5), 10 mM cadaverine, 10 mM pyruvate, and 100 μM pyridoxyl 5′ phosphate. […]

[2] = molecular target: T1, Escherichia coli ω-transaminase (SEQ ID NO: 12) (Escherichia coli, UniProt P42588); assay: as above; type: biochemical; conditions: for accepted as substrate as confirmed against the empty vector control: reverse direction, 10 mM substrate, 10 mM pyruvate, 100 μM pyridoxyl 5′ phosphate, pH 7.5, 25° C., 4 h, L-alanine by RP-HPLC; for accepted as substrate, concluded from the reversibility of the ω-transaminase activity: forward (amine-forming) direction, inferred from the reverse assay
T1 construct: His-tag (N); made in house; host or cells: E. coli BL21[DE3], pET21a
T1 sequence (P42588 whole entry): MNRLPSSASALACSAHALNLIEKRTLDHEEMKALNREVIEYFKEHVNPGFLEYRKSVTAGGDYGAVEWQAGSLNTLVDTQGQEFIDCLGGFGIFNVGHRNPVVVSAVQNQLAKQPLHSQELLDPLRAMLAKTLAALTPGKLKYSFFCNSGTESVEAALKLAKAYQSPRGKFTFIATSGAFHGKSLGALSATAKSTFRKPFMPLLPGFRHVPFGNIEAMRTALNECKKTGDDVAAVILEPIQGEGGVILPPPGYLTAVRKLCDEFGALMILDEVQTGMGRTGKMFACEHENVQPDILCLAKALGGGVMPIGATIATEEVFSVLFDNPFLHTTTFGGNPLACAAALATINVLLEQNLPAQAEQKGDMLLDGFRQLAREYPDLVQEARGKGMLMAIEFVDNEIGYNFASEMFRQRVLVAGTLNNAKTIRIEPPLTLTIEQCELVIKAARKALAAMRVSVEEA
Experimental: as §2, §1, §3
as §2, with “and” for “Rhodobacter sphaeroide,”, “coli” for “coli and Vibrio fluvialis”, “8-10 and 12,” for “8-13,”
as §3, with “cadaverine” for “5-aminopentanol”, “5-aminopentanal)” for “5-oxopentanol)”, “cadaverine,” for “5-aminopentanol,”
(§4) The activity of the N-terminal His-tagged ω-transaminases of SEQ ID NOs: 8, 10-13 (see Example 3, and FIG. 10) for converting N5-acetyl-1,5-diaminopentane to N5-acetyl-5-aminopentanal was assayed using a buffer composed of a final concentration of 50 mM HEPES buffer (pH=7.5), 10 mM N5-acetyl-1,5-diaminopentane, 10 mM pyruvate and 100 μM pyridoxyl 5′ phosphate. Each enzyme activity assay reaction was initiated by adding a cell free extract of the ω-transaminase or the empty vector control to the assay buffer containing the N5-acetyl-1,5-diaminopentane then incubated at 25° C. for 4 h, with shaking at 250 rpm. The formation of L-alanine was quantified via RP-HPLC.
(§5) The activity of the N-terminal His-tagged ω-transaminases of SEQ ID NOs: 8-13 (see Example 3, and FIG. 10) for converting 1-aminopentane to pentanal was assayed using a buffer composed of a final concentration of 50 mM HEPES buffer (pH=7.5), 10 mM 1-aminopentane, 10 mM pyruvate and 100 μM pyridoxyl 5′ phosphate. […]

[3] = system: Pseudomonas syringae ω-transaminase (SEQ ID NO: 10); assay: as above; type: biochemical; conditions: for accepted as substrate as confirmed against the empty vector control: reverse direction, 10 mM substrate, 10 mM pyruvate, 100 μM pyridoxyl 5′ phosphate, pH 7.5, 25° C., 4 h, L-alanine by RP-HPLC; for accepted as substrate, concluded from the reversibility of the ω-transaminase activity: forward (amine-forming) direction, inferred from the reverse assay
Experimental: as §2, §1, §3
as §2, with “and” for “Rhodobacter sphaeroide,”, “coli” for “coli and Vibrio fluvialis”, “8-10 and 12,” for “8-13,”
as §3, with “cadaverine” for “5-aminopentanol”, “5-aminopentanal)” for “5-oxopentanol)”, “cadaverine,” for “5-aminopentanol,”
as §4, §5

[4] = system: Vibrio fluvialis ω-transaminase (SEQ ID NO: 13); assay: as above; type: biochemical; conditions: for accepted as substrate as confirmed against the empty vector control: reverse direction, 10 mM substrate, 10 mM pyruvate, 100 μM pyridoxyl 5′ phosphate, pH 7.5, 25° C., 4 h, L-alanine by RP-HPLC; for accepted as substrate, concluded from the reversibility of the ω-transaminase activity: forward (amine-forming) direction, inferred from the reverse assay
Experimental: as §2, §1, §3, §4
as §4, with “8-13” for “8, 10-13”, “1-aminopentane” for “N5-acetyl-1,5-diaminopentane”, “pentanal” for “N5-acetyl-5-aminopentanal”, “1-aminopentane,” for “N5-acetyl-1,5-diaminopentane,”
as §4, with “8-13” for “8, 10-13”, “1-aminoheptane” for “N5-acetyl-1,5-diaminopentane”, “heptanal” for “N5-acetyl-5-aminopentanal”, “1-aminoheptane,” for “N5-acetyl-1,5-diaminopentane,”

[5] = system: Rhodobacter sphaeroides ω-transaminase (SEQ ID NO: 11); assay: as above; type: biochemical; conditions: for accepted as substrate as confirmed against the empty vector control: reverse direction, 10 mM substrate, 10 mM pyruvate, 100 μM pyridoxyl 5′ phosphate, pH 7.5, 25° C., 4 h, L-alanine by RP-HPLC; for accepted as substrate, concluded from the reversibility of the ω-transaminase activity: forward (amine-forming) direction, inferred from the reverse assay
Experimental: as §2, §1, §3, §4
as §4, with “8-13” for “8, 10-13”, “1-aminopentane” for “N5-acetyl-1,5-diaminopentane”, “pentanal” for “N5-acetyl-5-aminopentanal”, “1-aminopentane,” for “N5-acetyl-1,5-diaminopentane,”
as §4, with “8-13” for “8, 10-13”, “1-aminoheptane” for “N5-acetyl-1,5-diaminopentane”, “heptanal” for “N5-acetyl-5-aminopentanal”, “1-aminoheptane,” for “N5-acetyl-1,5-diaminopentane,”

[6] = system: Pseudomonas aeruginosa ω-transaminase (SEQ ID NO: 9); assay: as above; type: biochemical; conditions: for accepted as substrate as confirmed against the empty vector control: reverse direction, 10 mM substrate, 10 mM pyruvate, 100 μM pyridoxyl 5′ phosphate, pH 7.5, 25° C., 4 h, L-alanine by RP-HPLC; for accepted as substrate, concluded from the reversibility of the ω-transaminase activity: forward (amine-forming) direction, inferred from the reverse assay
Experimental: as §2, §1, §3
as §2, with “and” for “Rhodobacter sphaeroide,”, “coli” for “coli and Vibrio fluvialis”, “8-10 and 12,” for “8-13,”
as §3, with “cadaverine” for “5-aminopentanol”, “5-aminopentanal)” for “5-oxopentanol)”, “cadaverine,” for “5-aminopentanol,”
as §4, with “8-13” for “8, 10-13”, “1-aminopentane” for “N5-acetyl-1,5-diaminopentane”, “pentanal” for “N5-acetyl-5-aminopentanal”, “1-aminopentane,” for “N5-acetyl-1,5-diaminopentane,”
as §5, with “1-aminoheptane” for “1-aminopentane”, “heptanal” for “pentanal”, “1-aminoheptane,” for “1-aminopentane,”

gene product of ygjG = gene product of ygjG (Escherichia coli, UniProt P42588); conditions: Samsonova et al., 2003; cited from earlier work
gene product of ygjG, sequence (P42588 whole entry): as above

[7] = system: Chromobacterium violaceum ω-transaminase (SEQ ID NO: 8); assay: ω-transaminase enzyme activity assay, amine substrate plus pyruvate to L-alanine (cell free extract); type: biochemical; conditions: forward (amine-forming) direction, inferred from the reverse assay
[8] = system: acetylputrescine deacetylase from Micrococcus luteus K-11; conditions: Suzuki et al., 1986; cited from earlier work

NCCCCC(=O)O [5-aminopentanoate]
accepted as substrate as confirmed against the empty vector control [1]: accepted

CC(=O)NCCCCCN [N5-acetyl-1,5-diaminopentane]
accepted as substrate as confirmed against the empty vector control [2]: accepted | accepted as substrate as confirmed against the empty vector control [3]: accepted | accepted as substrate as confirmed against the empty vector control [4]: accepted | accepted as substrate as confirmed against the empty vector control [5]: accepted | accepted as substrate as confirmed against the empty vector control [1]: accepted

CCCCCCCN [1-aminoheptane]
accepted as substrate as confirmed against the empty vector control [2]: accepted | accepted as substrate as confirmed against the empty vector control [3]: accepted | accepted as substrate as confirmed against the empty vector control [6]: accepted | accepted as substrate as confirmed against the empty vector control [4]: accepted | accepted as substrate as confirmed against the empty vector control [5]: accepted | accepted as substrate as confirmed against the empty vector control [1]: accepted

NCCCCNCCCN [spermidine]
accepted as diamine substrate (gene product of ygjG): accepts

CCCCCN [1-aminopentane]
accepted as substrate as confirmed against the empty vector control [2]: accepted | accepted as substrate as confirmed against the empty vector control [3]: accepted | accepted as substrate as confirmed against the empty vector control [6]: accepted | accepted as substrate as confirmed against the empty vector control [4]: accepted | accepted as substrate as confirmed against the empty vector control [5]: accepted | accepted as substrate as confirmed against the empty vector control [1]: accepted

O=CCCCCO [5-oxopentanol]
accepted as substrate, concluded from the reversibility of the ω-transaminase activity [2]: accept | accepted as substrate, concluded from the reversibility of the ω-transaminase activity [3]: accept | accepted as substrate, concluded from the reversibility of the ω-transaminase activity [6]: accept | accepted as substrate, concluded from the reversibility of the ω-transaminase activity [4]: accept | accepted as substrate, concluded from the reversibility of the ω-transaminase activity [5]: accept | accepted as substrate, concluded from the reversibility of the ω-transaminase activity [7]: accept

NCCCCCO [5-aminopentanol]
accepted as substrate as confirmed against the empty vector control [2]: accepted | accepted as substrate as confirmed against the empty vector control [3]: accepted | accepted as substrate as confirmed against the empty vector control [6]: accepted | accepted as substrate as confirmed against the empty vector control [4]: accepted | accepted as substrate as confirmed against the empty vector control [5]: accepted | accepted as substrate as confirmed against the empty vector control [1]: accepted

CC(=O)NCCCCCN [acetylcadaverine]
accepted as substrate [8]: accepts

CC(=O)NCCCCN [acetylputrescine]
accepted as substrate [8]: accepts

CC(=O)NCCCCNCCCN [N^8-acetylspermidine]
accepted as substrate [8]: accepts

CC(=O)NCCCCC=O [N5-acetyl-5-aminopentanal]
accepted as substrate, concluded from the reversibility of the ω-transaminase activity [2]: accept | accepted as substrate, concluded from the reversibility of the ω-transaminase activity [3]: accept | accepted as substrate, concluded from the reversibility of the ω-transaminase activity [4]: accept | accepted as substrate, concluded from the reversibility of the ω-transaminase activity [5]: accept | accepted as substrate, concluded from the reversibility of the ω-transaminase activity [7]: accept

NCCCCC=O [5-aminopentanal]
accepted as substrate, concluded from the reversibility of the ω-transaminase activity [2]: accept | accepted as substrate, concluded from the reversibility of the ω-transaminase activity [3]: accept | accepted as substrate, concluded from the reversibility of the ω-transaminase activity [6]: accept | accepted as substrate, concluded from the reversibility of the ω-transaminase activity [7]: accept

NCCCCN [putrescine]
accepted as diamine substrate (gene product of ygjG): accepts
